Source: PMC8445441, “Elucidating the mechanism by which synthetic helper peptides sensitize Pseudomonas aeruginosa to multiple antibiotics” (PLoS Pathogens, 2021)
Where two headings read alike, the source gives them in different places.

Columns and labels:
P. aeruginosa AUMC-Pa-2 = details: strain AUMC-Pa-2; antibiotic + D-11 (MICb/MICbc 64/4)
Outline: (§1)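 CLSI broth dilution; MHB; ~1 × 10^6 CFU/mL suspension mixed equal volume with drug; 37 °C for 18 h; visual read; triplicate. Broth sometimes supplemented with PG, PE, PC, CL, LPS, MgCl2, CaCl2 or PAβN.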

P. aeruginosa AUMC-Pa-1 = details: strain AUMC-Pa-1; antibiotic + D-11 (MICb/MICbc 128/4)
Outline: as §1

P. aeruginosa AUMC-Pa-6 = assay: microbe, parasite or virus in culture; details: strain AUMC-Pa-6
Outline: as §1

P. aeruginosa AUMC-Pa-5 = assay: microbe, parasite or virus in culture; details: strain AUMC-Pa-5
Outline: as §1

P. aeruginosa AUMC-Pa-4 = assay: microbe, parasite or virus in culture; details: strain AUMC-Pa-4
Outline: as §1

P. aeruginosa PAO1 = assay: microbe, parasite or virus in culture; details: S3 Table, PAO1
Outline: as §1

P. aeruginosa AUMC-Pa-3 = assay: microbe, parasite or virus in culture; details: strain AUMC-Pa-3
Outline: as §1

P. aeruginosa PA14 = assay: microbe, parasite or virus in culture; parameters: MICa: MIC of the antibiotic / MICac: MIC of the antibiotic in the combination: unit not given beside the values; details: strain PA14
Outline: as §1

P. aeruginosa ATCC27853 = assay: microbe, parasite or virus in culture; parameters: MICa: MIC of the antibiotic / MICac: MIC of the antibiotic in the combination: unit not given beside the values; details: strain ATCC27853
Outline: as §1

P. aeruginosa PAK = assay: microbe, parasite or virus in culture; parameters: MICa: MIC of the antibiotic / MICac: MIC of the antibiotic in the combination: unit not given beside the values; details: strain PAK
Outline: as §1

P. aeruginosa NR-31041 = assay: microbe, parasite or virus in culture; parameters: MICa: MIC of the antibiotic / MICac: MIC of the antibiotic in the combination: unit not given beside the values
Outline: as §1

P. aeruginosa NR-31040 = assay: microbe, parasite or virus in culture; parameters: MICa: MIC of the antibiotic / MICac: MIC of the antibiotic in the combination: unit not given beside the values
Outline: as §1

P. aeruginosa HM-214 = details: strain HM-214; antibiotic + D-11 (MICb/MICbc 128/4)
Outline: as §1

[1] = system: clinical P. aeruginosa isolates; assay: microbe, parasite or virus in culture; details: Pseudomonas aeruginosa, 18 h, antibiotic alone
Outline: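 MIC is the lowest drug concentration showing no visible growth after 18 h at 37 °C. Two-fold dilutions in MHB were combined with an equal volume of bacterial suspension (about 1 × 10^6 CFU/mL), following CLSI broth microdilution, in triplicate.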

[2] = antibiotic + D-11 (MICb/MICbc 64/4)
[3] = antibiotic alone, unit not given
[4] = with D-11 at MICbc 4, unit not given
[5] = antibiotic + D-11 (MICb/MICbc 128/4)

- MICa: MIC of the antibiotic (P. aeruginosa AUMC-Pa-6; [3]): 8
- MICac: MIC of the antibiotic in the combination (P. aeruginosa AUMC-Pa-6; [4]): 2
- MICa: MIC of the antibiotic (P. aeruginosa AUMC-Pa-5; [3]): 8/8
- MICac: MIC of the antibiotic in the combination (P. aeruginosa AUMC-Pa-5; [4]): 8/8
- MICa: MIC of the antibiotic (P. aeruginosa AUMC-Pa-4; [3]): 8
- MICac: MIC of the antibiotic in the combination (P. aeruginosa AUMC-Pa-4; [4]): 2
- MICac: the MIC for the antibiotic in the combination (P. aeruginosa PAO1; with 2 μM D-11): 1 µM
- MICac: the MIC for the antibiotic in the combination (P. aeruginosa PAO1; with 4 μM D-11): 1 µM
- MICa: the MIC of antibiotics (P. aeruginosa PAO1; antibiotic alone): 4 µM
- MICa: MIC of the antibiotic (P. aeruginosa AUMC-Pa-3; [3]): 4
- MICac: MIC of the antibiotic in the combination (P. aeruginosa AUMC-Pa-3; [4]): 1
- MICa: MIC of the antibiotic (P. aeruginosa PA14; [3]): 4
- MICac: MIC of the antibiotic in the combination (P. aeruginosa PA14; [4]): 1
- MICa: MIC of the antibiotic (P. aeruginosa ATCC27853; [3]): 4
- MICac: MIC of the antibiotic in the combination (P. aeruginosa ATCC27853; [4]): 1
- MICa: MIC of the antibiotic (P. aeruginosa PAK; [3]): 4
- MICac: MIC of the antibiotic in the combination (P. aeruginosa PAK; [4]): 1
- MIC (P. aeruginosa NR-31041; Pseudomonas aeruginosa, NR31041, 18 h, read-out: MICa: MIC of the antibiotic): 8.1 µM
- MIC (P. aeruginosa NR-31040; Pseudomonas aeruginosa, NR31040, 18 h, read-out: MICa: MIC of the antibiotic): 8 µM
- MICac: MIC of the antibiotic in the combination (P. aeruginosa NR-31040; strain NR-31040, with D-11 at MICbc 4, unit not given): 0.5
- MIC ([1]; read-out: Antibiotic sensibility (MIC) of clinical P. aeruginosa isolate AUMC-Pa-1, strain AUMC-Pa-1): 8 µM
- MIC ([1]; read-out: Antibiotic sensibility (MIC) of clinical P. aeruginosa isolate AUMC-Pa-2, strain AUMC-Pa-2): 2 µM
- MIC ([1]; read-out: Antibiotic sensibility (MIC) of clinical P. aeruginosa isolate AUMC-Pa-3, strain AUMC-Pa-3): 4 µM
- MIC ([1]; read-out: Antibiotic sensibility (MIC) of clinical P. aeruginosa isolate AUMC-Pa-4, strain AUMC-Pa-4): 8 µM
- MIC ([1]; read-out: Antibiotic sensibility (MIC) of clinical P. aeruginosa isolate AUMC-Pa-5, strain AUMC-Pa-5): 8 µM
- MIC ([1]; read-out: Antibiotic sensibility (MIC) of clinical P. aeruginosa isolate AUMC-Pa-6, strain AUMC-Pa-6): 8 µM
- MIC ([1]; read-out: Antibiotic sensibility (MIC) of clinical P. aeruginosa isolate HM-214, strain HM-214): 4 µM
- MIC ([1]; read-out: Antibiotic sensibility (MIC) of clinical P. aeruginosa isolate NR-31040, strain NR-31040): 8 µM
- MIC ([1]; read-out: Antibiotic sensibility (MIC) of clinical P. aeruginosa isolate NR-31041, strain NR-31041): 8 µM
Compound: CN(C)c1cc(NC(=O)CNC(C)(C)C)c(O)c2c1C[C@H]1C[C@H]3[C@H](N(C)C)C(O)=C(C(N)=O)C(=O)[C@@]3(O)C(O)=C1C2=O [Tigecycline]
- FICI (P. aeruginosa AUMC-Pa-2): 0.563
- FICI (P. aeruginosa AUMC-Pa-1): 0.281
- FICI (P. aeruginosa AUMC-Pa-6; [2]): 0.313
- FICI (P. aeruginosa AUMC-Pa-5; [2]): 1.063
- FICI (P. aeruginosa AUMC-Pa-4; [5]): 0.281
- FICI (P. aeruginosa PAO1; antibiotic + 2 μM D-11): 0.313
- FICI (P. aeruginosa PAO1; antibiotic + 4 μM D-11): 0.375
- FICI (P. aeruginosa AUMC-Pa-3; [5]): 0.281
- FICI (P. aeruginosa PA14; [5]): 0.281
- FICI (P. aeruginosa ATCC27853; antibiotic + D-11 (MICb/MICbc 32/4)): 0.375
- FICI (P. aeruginosa PAK; [2]): 0.313
- FICI (P. aeruginosa NR-31041; strain NR-31041, antibiotic + D-11 (MICb/MICbc 64/4)): 0.188
- FICI (P. aeruginosa NR-31040; strain NR-31040, antibiotic + D-11 (MICb/MICbc 128/4)): 0.094
- FICI (P. aeruginosa HM-214): 0.281
